The results in this text go back to patent US20130210034A1, “COMPLEX PHOSPHOPROTEIN ACTIVATION PROFILES” (BECKMAN COULTER, INC., priority 2005, published 2013).

The subject of this experiment is pERK and pS6. Put plainly: Comparison of SCF-stimulated pERK and pS6 (pERK/pS6 ratios) in healthy donor and AML bone marrow samples. The format is cell-based, human. As for the experimental part:
In an attempt to dissect the differences between the pERK and pS6 kinetic profiles in healthy donor and AML bone marrow sampless, SCF-stimulated pERK and pS6 data derived from AML1, ALM2, and healthy donors 6 to 9 were analyzed from four different perspectives: MFI, the frequency of positive-stained cells, the ratio of positive to negative cells, and fold stimulation (FIG. 10 and Table 10). The ratio of positives to negative cells was calculated by estimating the AUC of both positive- and negative-stained cells at each t=n, and then expressing this as the ratio of positives to negatives. The fold stimulation was the fold change of the positive/negative ratio at t=n over the baseline ratio at t=0 min. […] However, this was not the case in the AML samples.

Turning to Stem Cell Factor [SCF], for the setting “AML1”, the “Fold Stimulation, pERK/pS6” value turned out to be 1.4; the “Frequency, pERK/pS6” value worked out at 0.92; the “MFI, pERK/pS6” value amounted to 0.48; the “Positives/Negatives, pERK/pS6” value is on record as 0.29. Besides, under “AML2”, the “Fold Stimulation, pERK/pS6” value is 2.1; the “Frequency, pERK/pS6” value is given as 0.93; the “MFI, pERK/pS6” value is 0.54; the “Positives/Negatives, pERK/pS6” value stood at 0.32. For the setting “AML samples”, the “[(pERK)max:(pS6)max]MFI ratio” value is listed as “about 0.5” and the “[(pERK)max:(pS6)max]POS/NEG ratio” value is “about 0.3”. Besides, under “healthy donors 6 to 9”, the “Fold Stimulation, pERK/pS6” value amounted to 5.3; the “Frequency, pERK/pS6” value is 3.1; the “MFI, pERK/pS6” value came to 3.6; the “Positives/Negatives, pERK/pS6” value worked out at 11.
